The numbers were not newly measured in publication PMC6967409 (Frontiers in Chemistry, 2020), which cites them from elsewhere.

Where two headings read alike, the source gives them in different places.

Usually IC50 stands for the concentration that gives 50% inhibition. Usually EC50 stands for the concentration giving half of the maximal effect.

The test system of data set [1] is P. falciparum NF54. Set-up: method as in Coertzen et al. (2018). Particulars: SYBR Green I; ref Coertzen et al. (2018); read-out: Proliferative IC50 NF54; cited from earlier work.
The test system of the next data set is P. falciparum Dd2. Details: method as in Coertzen et al. (2018). Particulars: pLDH, 48 h; ref Coertzen et al. (2018); read-out: Metabolic IC50 Dd2; cited from earlier work.
The test system of another data set is HepG2 cells. The conditions noted are these: read-out: Cytotoxicity EC50 HepG2; ref Coertzen et al. (2018); cited from earlier work.
In the next data set the test system is P. falciparum K1. Set-up: method as in Coertzen et al. (2018). The conditions noted are these: SYBR Green I; ref Coertzen et al. (2018); read-out: Proliferative IC50 K1; cited from earlier work.
Data set [2] concerns P. falciparum NF54. Details: method as in Coertzen et al. (2018). Particulars: pLDH, 48 h; ref Coertzen et al. (2018); read-out: Metabolic IC50 NF54; cited from earlier work.

Regarding `CCN(CC)CCCC(C)Nc1ccnc2cc(Cl)ccc12` (centres unmarked) [CQ, chloroquine], the IC50 was 10 ± 3 nM in the data set with P. falciparum NF54 [1], 251 ± 19.9 nM in the data set on P. falciparum Dd2, 154 ± 14 nM with P. falciparum K1 and 10 ± 1.6 nM with P. falciparum NF54 [2]. In addition, the EC50 in the data set on HepG2 cells was 58.4 nM.
